From patent publication US6458802B1, “Antidepressant azaheterocyclymethyl derivatives of 2,3-dihydro-1,4-dioxino [2,3-f]quinoline” (Wyeth, priority 2001, dated 2002)
pIC50, pKi: −log10 of the molar value. Counter-ions that a name gives are not always drawn. Like-named read-outs stand apart in the source and are kept apart here.

What was measured:
[1] = target: T1, cloned human 5HT1A receptors (Homo sapiens, UniProt P08908); experiment: 35S-GTPγS binding assay, antagonist activity at 5HT1A receptors; assay type: biochemical; conditions: for 5HT1A Function (Imax) / Emax: maximum inhibitory effect in 35S-GTPγS binding versus 8-OH-DPAT; for pIC50: 35S-GTPγS binding, reversal of the effects of the standard agonist 8-OH-DPAT, membranes with cloned human 5HT1A receptors, read-out: 5HT1A Function IC50; for Emax: read-out: 5HT1A Function (Imax)
T1 construct: expressed in transfected cells
T1 sequence (P08908 1-422): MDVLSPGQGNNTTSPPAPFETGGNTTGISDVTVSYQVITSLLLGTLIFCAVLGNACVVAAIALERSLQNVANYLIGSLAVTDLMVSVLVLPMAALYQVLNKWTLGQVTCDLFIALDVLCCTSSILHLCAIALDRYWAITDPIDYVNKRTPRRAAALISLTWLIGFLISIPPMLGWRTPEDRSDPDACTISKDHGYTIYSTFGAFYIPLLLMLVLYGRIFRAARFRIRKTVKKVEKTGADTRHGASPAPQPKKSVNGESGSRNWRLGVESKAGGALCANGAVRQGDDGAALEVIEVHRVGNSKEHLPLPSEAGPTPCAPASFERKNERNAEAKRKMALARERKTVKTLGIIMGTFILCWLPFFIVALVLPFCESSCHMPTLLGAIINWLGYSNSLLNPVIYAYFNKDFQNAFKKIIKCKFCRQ
Description: Antagonist activity at 5HT1A receptors was established by using a ^35S-GTPγS binding assay similar to that used by Lazareno and Birdsall (Br. J. Pharmacol. 109: 1120, 1993), in which the test compound's ability to affect the binding of 35S-GTPγS to membranes containing cloned human 5HT1A receptors was determined. Agonists produce an increase in binding whereas antagonists produce no increase but rather reverse the effects of the standard agonist 8-OH-DPAT. The test compound's maximum inhibitory effect is represented as the 1max, while its potency is defined by the IC50.

serotonin transporter = target: T2, serotonin transporter (Rattus norvegicus, UniProt P31652); experiment: 3H-paroxetine displacement, affinity for the serotonin transporter; assay type: binding
T2 construct: displace ^3H-paroxetine from male rat frontal cortical membranes; from tissue; host or cells: male rat frontal cortex membranes
T2 sequence (P31652 whole entry): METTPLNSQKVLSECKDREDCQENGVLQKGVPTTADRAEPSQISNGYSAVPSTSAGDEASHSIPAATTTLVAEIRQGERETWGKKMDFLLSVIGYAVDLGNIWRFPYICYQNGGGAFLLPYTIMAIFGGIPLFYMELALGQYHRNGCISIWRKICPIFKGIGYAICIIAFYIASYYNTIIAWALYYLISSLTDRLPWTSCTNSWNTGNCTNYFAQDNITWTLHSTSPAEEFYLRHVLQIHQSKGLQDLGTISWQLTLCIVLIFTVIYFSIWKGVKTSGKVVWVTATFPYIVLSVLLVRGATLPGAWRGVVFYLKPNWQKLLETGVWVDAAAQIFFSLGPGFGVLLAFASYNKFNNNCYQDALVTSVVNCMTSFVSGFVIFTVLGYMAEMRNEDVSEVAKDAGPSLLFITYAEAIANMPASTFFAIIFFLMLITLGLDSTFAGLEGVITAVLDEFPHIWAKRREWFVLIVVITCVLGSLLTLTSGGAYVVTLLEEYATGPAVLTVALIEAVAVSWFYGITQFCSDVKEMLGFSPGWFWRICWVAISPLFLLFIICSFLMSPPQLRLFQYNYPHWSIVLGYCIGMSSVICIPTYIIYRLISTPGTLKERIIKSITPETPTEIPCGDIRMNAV

human 5HT1A receptors = target: T3, human 5HT1A receptors (Homo sapiens, UniProt P08908); experiment: [3H] 8-OH-DPAT displacement from the 5HT1A serotonin receptor (transfected CHO cells); assay type: binding
T3 construct: expressed in transfected cells; host or cells: CHO cells
T3 sequence (P08908 1-422): T1 sequence (P08908 1-422)
From the text: High affinity for the serotonin 5HT1A receptor was established by testing the claimed compound's ability to displace [^3H] 8-OH-DPAT (dipropylamino-tetralin) from the 5HT1A serotonin receptor following a modification of the procedure of Hall et al., J. Neurochem. 44, 1685 (1985) which utilizes CHO cells stably transfected with human 5HT1A receptors.

[2] = displacement of [3H] 8-OH-DPAT, CHO cells stably transfected with human 5HT1A receptors, read-out: 5HT1A Receptor Affinity KI

Question: With “2-({4-[(6-Chloro-1H-indol-3-yl)methyl]piperidin-1-yl}methyl)-8-methyl-2,3-dihydro[1,4]dioxino[2,3-f]quinoline [Example 20]” as the compound, how does the “5HT1A Function (Imax)” value [1] read?
Answer: (100)

Question: Which “5HT1A Function (Imax)” value [1] does the source give for “2-({4-[(7-Ethyl-1H-indol-3-yl)methyl]piperidin-1-yl}methyl)-8-methyl-2,3-dihydro[1,4]dioxino[2,3-f]quinoline [Example 19]” here?
Answer: (100)

Question: With `NC(=O)c1ccc2[nH]cc(C3=CCN(C[C@H]4COc5ccc6ncccc6c5O4)CC3)c2c1` (as salt: fumarate) (hydrate or solvate) [Example 6, 3-[1-(2,3-Dihydro[1,4]dioxino[2,3-f]qiuinolin-2-ylmethyl)-1,2,3,6-tetrahydropyridin-4-yl]-1H-indole-5-carboxylic Acid Amide] as the compound, how does the melting point read?
Answer: 219 °C

Question: With `Cc1ccc2c3c(ccc2n1)OCC(CN1CC=C(c2c[nH]c4ccc(F)cc24)CC1)O3` (stereo not drawn) (as salt: fumarate) (hydrate or solvate) [Example 11, 2-[4-(5-Fluoro-1H-indol-3-yl)-3,6-dihydro-2H-pyridin-1-ylmethyl]-8-methyl-2,3-dihydro[1,4]dioxino[2,3-f]quinoline] as the compound, how does the melting point read?
Answer: 198 to 199 °C

Question: For `Cc1ccc2c3c(ccc2n1)OCC(CN1CCC(c2c[nH]c4ccccc24)CC1)O3` (stereo not drawn) (as salt: fumarate) (hydrate or solvate) [Example 12, 2-[4-(1H-indol-3-yl)piperidin-1-ylmethyl]-8-methyl-2,3-dihydro[1,4]dioxino[2,3-f]quinoline], which melting point is on record?
Answer: 206 °C

Question: For `CCc1ccc2c3c(ccc2n1)OCC(CN1CC=C(c2c[nH]c4ccc(F)cc24)CC1)O3` (stereo not drawn) (as salt: fumarate) (hydrate or solvate) [Example 14, 8-Ethyl-2-[(4-(5-fluoro-1H-indol-3-yl)-3,6-dihydropyridin-1(2H)-yl)methyl]-2,3-dihydro[1,4]dioxino[2,3-f]quinoline], which melting point is on record?
Answer: 143 to 144 °C

Question: Which melting point does the source give for `Fc1ccc2[nH]cc(C3=CCN(CC4COc5cc(F)c6ncccc6c5O4)CC3)c2c1` (stereo not drawn) (as salt: fumarate) (hydrate or solvate) [Example 15, 6-Fluoro-2-[(4-(5-fluoro-1H-indol-3-yl)-3,6-dihydropyridin-1(2H)-yl)methyl]-2,3-dihydro[1,4]dioxino[2,3-f]quinoline] here?
Answer: 190 °C

Question: For `Nc1ccc2c3c(ccc2n1)OC[C@H](CN1CC=C(c2c[nH]c4ccc(F)cc24)CC1)O3` (as salt: fumarate) (hydrate or solvate) [Example 18, 2-[4-(5-Fluoro-1H-indol-3-yl)-3,6-dihydro-2H-pyridin-1-ylmethyl]-2,3-dihydro[1,4]dioxino[2,3-f]guinolin-8-ylamine], which melting point is on record?
Answer: 245 °C

Question: With `Cc1ccc2[nH]cc(C3=CCN(CC4COc5ccc6nc(C)ccc6c5O4)CC3)c2c1` (stereo not drawn) (as salt: fumarate) (hydrate or solvate) [Example 22, 2-[4-(5-Methyl-1H-indol-3-yl)-3,6-dihydro-2H-pyridin-1-ylmethyl]-8-methyl-2,3-dihydro[1,4]dioxino[2,3-f]quinoline] as the compound, how does the melting point read?
Answer: 150 to 155 °C

Question: Which melting point does the source give for `COc1ccc2[nH]cc(C3=CCN(C[C@H]4COc5ccc6ncccc6c5O4)CC3)c2c1` (as salt: fumarate) [Example 1] here?
Answer: 170 °C

Question: With `COc1ccc2[nH]cc(C3=CCN(C[C@H]4COc5ccc6ncccc6c5O4)CC3)c2c1` [Example 1] as the compound, how does the pIC50 [1] read?
Answer: 6.49

Question: And the Emax [1]?
Answer: 100%

Question: What about the pKi (serotonin transporter) of the same compound?
Answer: 7.27

Question: What about the pKi (human 5HT1A receptors) of the same compound?
Answer: 8.03

Question: What does the source list for `Fc1ccc2[nH]cc(C3=CCN(C[C@H]4COc5ccc6ncccc6c5O4)CC3)c2c1` [Example 2]?
Answer: pIC50 [1]: 6.61; Emax [1]: 100%; pKi (serotonin transporter): 8.55; pKi (human 5HT1A receptors): 8.01

Question: Which results are given for `Fc1ccc2[nH]cc(CC3CCN(C[C@H]4COc5ccc6ncccc6c5O4)CC3)c2c1` [Example 3]?
Answer: pIC50 [1]: 6.92; Emax [1]: 90%; pKi (serotonin transporter; displacement of 3H-paroxetine from male rat frontal cortical membranes, read-out: 5-HT Transporter Affinity KI): 8.92; pKi (human 5HT1A receptors; [2]): 7.76

Question: With `C1=C(c2c[nH]c3ccccc23)CCN(C[C@H]2COc3ccc4ncccc4c3O2)C1` [Example 4, 2-[1,4-(1H-indol-3-yl)-3,6-dihydro-2H-pyridin-1-ylmethyl]-2,3-dihydro[1,4]dioxino[2,3-f]quinoline] as the compound, how does the pIC50 [1] read?
Answer: 6.65

Question: And the Emax [1]?
Answer: 87%

Question: And the pKi (serotonin transporter)?
Answer: 8.47

Question: What about the pKi (human 5HT1A receptors) of the same compound?
Answer: 8.32

Question: With `N#Cc1ccc2[nH]cc(C3=CCN(CC4COc5ccc6ncccc6c5O4)CC3)c2c1` (stereo not drawn) [Example 5, 3-[1-(2,3-Dihydro[1,4]dioxino[2,3-f]quinolin-2-ylmethyl)-1,2,3,6-tetrahydropyridin-4-yl]-1H-indole-5-carbonitrile] as the compound, how does the pKi (serotonin transporter) read?
Answer: 8.60

Question: And the pKi (human 5HT1A receptors; [2])?
Answer: 7.72

Question: With `NC(=O)c1ccc2[nH]cc(C3=CCN(C[C@H]4COc5ccc6ncccc6c5O4)CC3)c2c1` [Example 6, 3-[1-(2,3-Dihydro[1,4]dioxino[2,3-f]qiuinolin-2-ylmethyl)-1,2,3,6-tetrahydropyridin-4-yl]-1H-indole-5-carboxylic Acid Amide] as the compound, how does the pKi (serotonin transporter) read?
Answer: 8.45

Question: What about the pKi (human 5HT1A receptors; [2]) of the same compound?
Answer: 8.03

Question: Which results are given for `Cn1cc(C2=CCN(C[C@H]3COc4ccc5ncccc5c4O3)CC2)c2cc(F)ccc21` [Example 7, 2-[4-(5-Fluoro-1-methyl-1H-indol-3-yl)-3,6-dihydro-2H-pyridin-1-ylmethyl]-2,3-dihydro[1,4]dioxino[2,3-f]qiuinoline]?
Answer: pIC50 [1]: 5.97; Emax [1]: 100%; pKi (serotonin transporter): 8.07; pKi (human 5HT1A receptors): 7.83

Question: What does the source list for `Cc1ccc2c3c(ccc2n1)OCC(CN1CC=C(c2c[nH]c4cc(F)ccc24)CC1)O3` (stereo not drawn) [Example 10, 2-[4-(6-Fluoro-1H-indol-3-yl)-3,6-dihydro-2H-pyridin-1-ylmethyl]-8-methyl-2,3-dihydro[1,4]dioxino[2,3-f]quinoline]?
Answer: pIC50 [1]: 6.59; Emax [1]: 100%; pKi (serotonin transporter): 8.10; pKi (human 5HT1A receptors): 8.17

Question: Which results are given for `Cc1ccc2c3c(ccc2n1)OCC(CN1CC=C(c2c[nH]c4ccc(F)cc24)CC1)O3` (stereo not drawn) [Example 11, 2-[4-(5-Fluoro-1H-indol-3-yl)-3,6-dihydro-2H-pyridin-1-ylmethyl]-8-methyl-2,3-dihydro[1,4]dioxino[2,3-f]quinoline]?
Answer: pIC50 [1]: 6.92; Emax [1]: 100%; pKi (serotonin transporter): 8.26; pKi (human 5HT1A receptors): 7.88

Question: With `Cc1ccc2c3c(ccc2n1)OCC(CN1CCC(c2c[nH]c4ccccc24)CC1)O3` (stereo not drawn) [Example 12, 2-[4-(1H-indol-3-yl)piperidin-1-ylmethyl]-8-methyl-2,3-dihydro[1,4]dioxino[2,3-f]quinoline] as the compound, how does the pIC50 [1] read?
Answer: 7.07

Question: And the Emax [1]?
Answer: 100%

Question: And the pKi (serotonin transporter)?
Answer: 8.62

Question: And the pKi (human 5HT1A receptors)?
Answer: 8.00

Question: What does the source list for `CCc1ccc2c3c(ccc2n1)OCC(CN1CC=C(c2c[nH]c4ccc(F)cc24)CC1)O3` (stereo not drawn) [Example 14, 8-Ethyl-2-[(4-(5-fluoro-1H-indol-3-yl)-3,6-dihydropyridin-1(2H)-yl)methyl]-2,3-dihydro[1,4]dioxino[2,3-f]quinoline]?
Answer: pIC50 [1]: 6.78; Emax [1]: 100%; pKi (serotonin transporter): 7.85; pKi (human 5HT1A receptors): 7.81

Question: With `Fc1ccc2[nH]cc(C3=CCN(CC4COc5cc(F)c6ncccc6c5O4)CC3)c2c1` (stereo not drawn) [Example 15, 6-Fluoro-2-[(4-(5-fluoro-1H-indol-3-yl)-3,6-dihydropyridin-1(2H)-yl)methyl]-2,3-dihydro[1,4]dioxino[2,3-f]quinoline] as the compound, how does the pIC50 [1] read?
Answer: 5.99

Question: And the Emax [1]?
Answer: 100%

Question: And the pKi (serotonin transporter)?
Answer: 8.82

Question: And the pKi (human 5HT1A receptors)?
Answer: 7.44

Question: What does the source list for `COc1cc2c(c3cccnc13)O[C@@H](CN1CC=C(c3c[nH]c4ccc(F)cc34)CC1)CO2` [Example 17, 2-[4-(5-Fluoro-1H-indol-3-yl)-3,6-dihydro-2H-pyridin-1-ylmethyl]-6-methoxy-2,3-dihydro[1,4]dioxino[2,3-f]qiuinoline]?
Answer: pIC50 [1]: 5.85; Emax [1]: 100%; pKi (serotonin transporter): 8.32; pKi (human 5HT1A receptors; [2]): 6.50

Question: What does the source list for `Nc1ccc2c3c(ccc2n1)OC[C@H](CN1CC=C(c2c[nH]c4ccc(F)cc24)CC1)O3` [Example 18, 2-[4-(5-Fluoro-1H-indol-3-yl)-3,6-dihydro-2H-pyridin-1-ylmethyl]-2,3-dihydro[1,4]dioxino[2,3-f]guinolin-8-ylamine]?
Answer: pIC50 [1]: 7.07; Emax [1]: 100%; pKi (serotonin transporter): 9.18; pKi (human 5HT1A receptors): 7.96

Question: With `Cc1ccc2[nH]cc(C3=CCN(CC4COc5ccc6nc(C)ccc6c5O4)CC3)c2c1` (stereo not drawn) [Example 22, 2-[4-(5-Methyl-1H-indol-3-yl)-3,6-dihydro-2H-pyridin-1-ylmethyl]-8-methyl-2,3-dihydro[1,4]dioxino[2,3-f]quinoline] as the compound, how does the pIC50 [1] read?
Answer: 6.30

Question: And the Emax [1]?
Answer: 100%

Question: And the pKi (serotonin transporter)?
Answer: 7.23

Question: And the pKi (human 5HT1A receptors)?
Answer: 7.46
